Patent US12157755B2, “CD73 inhibitor, preparation method therefor and application thereof” (Abbisko Therapeutics Co., Ltd., priority 2019, dated 2024)

Assays:
[1] = target: T1, CD73 enzymatic activity expressed on the cell surface of MDA-MB-231 cells (Homo sapiens, UniProt P21589); assay: Inhibition of CD73 enzymatic activity on the cell surface (Cell Titer Glo (CTG) experiment), MDA-MB-231 cells; format: cell-based; conditions: MDA-MB-231 cells endogenously expressing CD73, AMP, 37° C. for 2 hours, CTG readout; read-out: Cellular activity IC50
T1 construct: Human breast cancer cells MDA-MB-231 that endogenously express CD73 were used; host or cells: MDA-MB-231
T1 sequence (P21589 27-549): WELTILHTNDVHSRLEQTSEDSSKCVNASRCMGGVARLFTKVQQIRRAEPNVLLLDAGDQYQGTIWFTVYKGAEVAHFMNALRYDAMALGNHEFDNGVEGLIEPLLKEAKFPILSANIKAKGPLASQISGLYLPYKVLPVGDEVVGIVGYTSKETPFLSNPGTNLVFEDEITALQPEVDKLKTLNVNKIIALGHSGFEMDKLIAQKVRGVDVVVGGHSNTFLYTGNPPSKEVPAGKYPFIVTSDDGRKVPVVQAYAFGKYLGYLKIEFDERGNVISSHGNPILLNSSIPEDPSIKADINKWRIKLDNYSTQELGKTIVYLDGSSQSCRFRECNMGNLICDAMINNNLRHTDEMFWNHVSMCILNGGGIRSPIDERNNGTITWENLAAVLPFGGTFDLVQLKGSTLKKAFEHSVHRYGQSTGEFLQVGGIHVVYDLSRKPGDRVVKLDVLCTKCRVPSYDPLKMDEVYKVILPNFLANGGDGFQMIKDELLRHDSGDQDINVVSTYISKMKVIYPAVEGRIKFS
Procedure: Human breast cancer cells MDA-MB-231 that endogenously express CD73 were used in the present invention to evaluate the inhibition of the compound against the CD73 enzymatic activity expressed on the cell surface. The cells used were from the Cell Bank of the Chinese Academy of Sciences. The specific experimental procedures were as follows:
1. Before the test, MDA-MB231 cells were seeded to a 96-well plate at 20000 cells/well;
2. In RPMI1640, 10% fetal bovine serum (Gibco, 10099-141), placed in a 5% CO2 incubator at 37° C. overnight (the cells were washed three times by using a serum-free RPMI medium right before the test):
3. 50 μl of serum-free media containing the compounds at different concentrations were added to the cells and incubated for 15 minutes;
4. 25 μL of 1.2 mM AMP was added for incubation at 37° C. for 2 hours, 25 μL of supernatant was then collected from the cells and mix with 25 μL of 100 μM ATP, and then the concentration of AMP in the samples was determined by CTG (Promega, #G7573);
5. Then, a reduction ratio of the substrate AMP level in the cell culture supernatant collected after the reaction was quantitatively determined to evaluate the inhibitory effects of the examples of the present invention and the positive compounds against the CD73 enzymatic activity on the cell surface;
6. Finally, the concentration of the compound leading to half maximal inhibition of enzymatic activity (IC50) was determined using a four-parameter non-linear logistic model curve fit in Graphpad Prism.

CD73 = target: T2, CD73 (Homo sapiens, UniProt P21589); assay: In vitro enzymatic activity against CD73 (malachite green test using soluble CD73); format: biochemical; conditions: soluble CD73 36 ng/mL, 50 μM AMP, 30 minutes at 25° C.
T2 construct: purchased R&D systems 5795-EN-010
T2 sequence (P21589 27-547 limits assumed): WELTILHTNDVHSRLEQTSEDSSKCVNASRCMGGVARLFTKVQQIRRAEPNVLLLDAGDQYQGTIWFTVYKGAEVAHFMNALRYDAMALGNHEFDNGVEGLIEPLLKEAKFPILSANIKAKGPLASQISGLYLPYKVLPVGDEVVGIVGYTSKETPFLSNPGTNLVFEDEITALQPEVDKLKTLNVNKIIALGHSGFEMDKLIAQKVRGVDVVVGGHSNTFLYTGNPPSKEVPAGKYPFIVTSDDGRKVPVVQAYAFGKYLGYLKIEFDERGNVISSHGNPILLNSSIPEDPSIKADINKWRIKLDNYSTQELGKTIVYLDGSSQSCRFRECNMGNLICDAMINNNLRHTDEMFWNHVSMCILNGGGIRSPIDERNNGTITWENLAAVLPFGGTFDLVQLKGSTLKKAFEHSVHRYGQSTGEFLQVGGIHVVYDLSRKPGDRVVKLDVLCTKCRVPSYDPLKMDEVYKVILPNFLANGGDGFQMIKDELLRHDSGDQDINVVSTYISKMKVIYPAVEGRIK
Procedure: The malachite green test using soluble CD73, which is synthesized in vitro was used in the present invention to determine the characteristics of inhibitory activity of the compounds against CD73. The specific experimental procedures were as following:
1. The enzyme reaction in this experiment was carried out in 384-well plates, and CD73 (R&D systems #5795-EN-010) at a concentration of 36 ng/mL, the compounds at different concentrations and 50 μM AMP were incubated for 30 minutes at 25° C. in a 40 uL reaction system (consisting of 25 mM Tris pH 7.5, 5 mM MgCl2, and 0.005% Tween-20);
2. Then, 10 μL of malachite green solution (Sigma) was added to each well to terminate the reaction;
3. The concentration of resulting inorganic phosphate was determined according to the instructions of the reagent manufacturer;
4. The enzymatic activity of CD73 was calculated based on the concentration of the product, and then IC50 values were determined by non-linear regression analysis of the inhibition percentage of the compounds of the present invention at different concentrations.

IC50 [1] [nM] | IC50 (CD73) [nM] | Structure (SMILES)
0.59 | 2 | C[C@H](Nc1cc(Cl)nc2c1cnn2[C@@H]1O[C@H](COP(=O)(O)CP(=O)(O)O)[C@@H](O)[C@H]1O)c1cccc(S(F)(F)(F)(F)F)c1 [Example 8, (((((2R,3S,4R,5R)-5-(6-chloro-4-(((S)-1-(3-(pentafluoro-λ^6-sulfanyl)phenyl)ethyl)amino)-1H-pyrazolo[3,4-b]pyridin-1-yl)-3,4-dihydroxytetrahydrofuran-2-yl)methoxy)(hydroxy)phosphoryl)methyl) phosphonic acid]
0.245 | 0.89 | Cc1cc(N[C@@H]2CCc3cc(F)cc(F)c32)c2cnn([C@@H]3O[C@H](COP(=O)(O)CP(=O)(O)O)[C@@H](O)[C@H]3O)c2n1 [Example 23, (((((2R,3S,4R,5R)-5-(4-(((R)-5,7-difluoro-2,3-dihydro-1H-inden-1-yl)amino)-6-methyl-1H-pyrazolo[3,4-b]pyridin-1-yl)-3,4-dihydroxytetrahydrofuran-2-yl)methoxy)(hydroxy)phosphoryl)methyl)phosphonic acid]
0.24 | 1.67 | O=P(O)(O)CP(=O)(O)OC[C@H]1O[C@@H](n2ncc3c(N[C@@H]4CCc5cc(Cl)ccc54)cc(Cl)nc32)[C@H](O)[C@@H]1O [Example 18, (((((2R,3S,4R,5R)-5-(6-chloro-4-(((R)-5-chloro-2,3-dihydro-1H-inden-1-yl)amino)-1H-pyrazolo[3,4-b]pyridin-1-yl)-3,4-dihydroxytetrahydrofuran-2-yl)methoxy)(hydroxy)phosphoryl)methyl)phosphonic acid]
1.61 | 15.1 | C[C@@H](Nc1cc(Cl)nc2c1cnn2[C@@H]1O[C@H](COP(=O)(O)CP(=O)(O)O)[C@@H](O)[C@H]1O)c1ccc(S(F)(F)(F)(F)F)cc1 [Example 7, (((((2R,3S,4R,5R)-5-(6-chloro-4-(((R)-1-(4-(pentafluoro-λ^6-sulfanyl)phenyl)ethyl)amino)-1H-pyrazolo[3,4-b]pyridin-1-yl)-3,4-dihydroxytetrahydrofuran-2-yl)methoxy)(hydroxy)phosphoryl)methyl) phosphonic acid]
0.22 | 1.01 | O=P(O)(O)CP(=O)(O)OC[C@H]1C[C@@H](c2ccc3c(N[C@@H]4CCc5cc(F)cc(F)c54)nc(Cl)nn23)[C@H](O)[C@@H]1O [Example 34, (((((1R,2R,3S,4S)-4-(2-chloro-4-(((R)-5,7-difluoro-2,3-dihydro-1H-inden-1-yl)amino)pyrrolo[2,1-f][1,2,4]triazin-7-yl)-2,3-dihydroxycyclopentyl)methoxy)(hydroxy)phosphoryl)methyl)phosphonic acid]
0.95 | 48.6 | O=P(O)(O)CP(=O)(O)OC[C@H]1C[C@@H](c2ccc3c(N[C@H]4CCc5cc(F)c(F)cc54)nc(Cl)nn23)[C@H](O)[C@@H]1O [Example 31, (((((1R,2R,3S,4S)-4-(2-chloro-4-(((S)-5,6-difluoro-2,3-dihydro-1H-inden-1-yl)amino)pyrrolo[2,1-f][1,2,4]triazin-7-yl)-2,3-dihydroxycyclopentyl)methoxy)(hydroxy)phosphoryl)methyl)phosphonic acid]
0.151 | 0.26 | O=P(O)(O)CP(=O)(O)OC[C@H]1O[C@@H](n2ncc3c(N[C@@H]4CCc5cc(F)c(F)cc54)cc(Cl)nc32)[C@H](O)[C@@H]1O [Example 22, (((((2R,3S,4R,5R)-5-(6-chloro-4-(((R)-5,6-difluoro-2,3-dihydro-1H-inden-1-yl)amino)-1H-pyrazolo[3,4-b]pyridin-1-yl)-3,4-dihydroxytetrahydrofuran-2-yl)methoxy)(hydroxy)phosphoryl)methyl)phosphonic acid]
0.9 | 23.4 | C[C@H](Nc1nc(Cl)nc2c1cnn2[C@@H]1O[C@H](COP(=O)(O)CP(=O)(O)O)[C@@H](O)[C@H]1O)c1ccc(S(F)(F)(F)(F)F)cc1F [Example 4, (((((2R,3S,4R,5R)-5-(6-chloro-4-(((S)-1-(2-fluoro-4-(pentafluoro-λ^6-sulfanyl)phenyl)ethyl)amino)-1H-pyrazolo[3,4-d]pyrimidin-1-yl)-3,4-dihydroxytetrahydrofuran-2-yl)methoxy)(hydroxy)phosphoryl)methyl)phosphonic acid]
0.373 | 6.8 | C[C@@H](Nc1nc(Cl)nc2c1cnn2[C@@H]1O[C@H](COP(=O)(O)CP(=O)(O)O)[C@@H](O)[C@H]1O)c1ccc(S(F)(F)(F)(F)F)cc1 [Example 1, (((((2R,3S,4R,5R)-5-(6-chloro-4-(((R)-1-(4-(pentafluoro-λ^6-sulfanyl)phenyl)ethyl)amino)-1H-pyrazolo[3,4-d]pyrimidin-1-yl)-3,4-dihydroxytetrahydrofuran-2-yl)methoxy)(hydroxy)phosphoryl)methyl)phosphonic acid]
0.256 | 1.26 | Cc1cc(N[C@@H]2CCc3cc(F)ccc32)c2cnn([C@@H]3O[C@H](COP(=O)(O)CP(=O)(O)O)[C@@H](O)[C@H]3O)c2n1 [Example 24, (((((2R,3S,4R,5R)-5-(4-(((R)-5-fluoro-2,3-dihydro-1H-inden-1-yl)amino)-6-methyl-1H-pyrazolo[3,4-b]pyridin-1-yl)-3,4-dihydroxytetrhydrofuran-2-yl)methoxy)(hydroxy)phosphoryl)methyl)phosphonic acid]
5.73 | 354 | O=P(O)(O)CP(=O)(O)OC[C@H]1C[C@@H](c2ccc3c(N[C@H]4CCc5ccc(C(F)(F)F)cc54)nc(Cl)nn23)[C@H](O)[C@@H]1O [Example 35, (((((1R,2R,3S,4S)-4-(2-chloro-4-(((S)-6-(trifluoromethyl)-2,3-dihydro-1H-inden-1-yl)amino)pyrrolo[2,1-f][1,2,4]triazin-7-yl)-2,3-dihydroxycyclopentyl)methoxy)(hydroxy)phosphoryl)methyl)phosphonic acid]
0.302 | 2.4 | C[C@H](Nc1cc(Cl)nc2c1cnn2[C@@H]1O[C@H](COP(=O)(O)CP(=O)(O)O)[C@@H](O)[C@H]1O)c1ccc(S(F)(F)(F)(F)F)cc1 [Example 6, (((((2R,3S,4R,5R)-5-(6-chloro-4-(((S)-1-(4-(pentafluoro-λ^6-sulfanyl)phenyl)ethyl)amino)-1H-pyrazolo[3,4-b]pyridin-1-yl)-3,4-dihydroxytetrahydrofuran-2-yl)methoxy)(hydroxy)phosphoryl)methyl) phosphonic acid]
